The values below come from article PMC8434884 (Journal of medicinal chemistry, 2020).

“Also recorded” adds a separate entry of the source.

For one data set, the target named is T1, α 2A (Homo sapiens, UniProt P08913).
T1 sequence (P08913 1-465): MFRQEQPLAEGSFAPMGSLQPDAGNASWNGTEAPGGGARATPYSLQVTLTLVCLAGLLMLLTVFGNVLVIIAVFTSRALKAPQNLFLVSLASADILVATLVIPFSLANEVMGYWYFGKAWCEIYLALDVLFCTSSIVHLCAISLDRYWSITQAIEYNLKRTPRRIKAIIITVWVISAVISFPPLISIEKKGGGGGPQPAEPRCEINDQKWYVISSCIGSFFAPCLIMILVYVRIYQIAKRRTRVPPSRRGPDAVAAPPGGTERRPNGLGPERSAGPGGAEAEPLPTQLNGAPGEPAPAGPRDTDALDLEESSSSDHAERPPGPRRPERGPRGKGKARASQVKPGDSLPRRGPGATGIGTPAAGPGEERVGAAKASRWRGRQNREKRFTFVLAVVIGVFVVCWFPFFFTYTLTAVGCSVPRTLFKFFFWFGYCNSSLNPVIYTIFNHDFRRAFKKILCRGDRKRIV
The following applies: 10 μM; cited from earlier work.

Data set [1] concerns rats. Particulars: cited from earlier work.
In data set [2] the target is T2, human 5-HT2CR (unedited INI isoform) (Homo sapiens, UniProt P28335).
T2 sequence (P28335 33-458): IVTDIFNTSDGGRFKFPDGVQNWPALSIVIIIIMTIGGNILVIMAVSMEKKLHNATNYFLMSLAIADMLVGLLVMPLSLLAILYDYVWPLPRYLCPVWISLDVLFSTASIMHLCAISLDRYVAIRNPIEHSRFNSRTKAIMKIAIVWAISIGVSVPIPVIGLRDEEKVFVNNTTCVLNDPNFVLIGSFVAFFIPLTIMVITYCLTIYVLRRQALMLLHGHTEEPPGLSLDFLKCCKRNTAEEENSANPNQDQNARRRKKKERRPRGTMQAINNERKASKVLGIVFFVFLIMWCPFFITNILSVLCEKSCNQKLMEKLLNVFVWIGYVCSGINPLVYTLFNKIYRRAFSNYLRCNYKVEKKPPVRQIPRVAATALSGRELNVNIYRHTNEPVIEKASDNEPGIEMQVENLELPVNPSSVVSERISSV
Particulars: h5-HT2CR-CHO cells, cited from earlier work.

The target of a further data set is D3 (Homo sapiens, UniProt P35462). The following applies: 10 μM; cited from earlier work.
For data set [3], the system named is rats. Particulars: cited from earlier work. This is another data set of the same source.
In another data set the target is T3, α 2B (Homo sapiens, UniProt P18089).
T3 sequence (P18089 1-450): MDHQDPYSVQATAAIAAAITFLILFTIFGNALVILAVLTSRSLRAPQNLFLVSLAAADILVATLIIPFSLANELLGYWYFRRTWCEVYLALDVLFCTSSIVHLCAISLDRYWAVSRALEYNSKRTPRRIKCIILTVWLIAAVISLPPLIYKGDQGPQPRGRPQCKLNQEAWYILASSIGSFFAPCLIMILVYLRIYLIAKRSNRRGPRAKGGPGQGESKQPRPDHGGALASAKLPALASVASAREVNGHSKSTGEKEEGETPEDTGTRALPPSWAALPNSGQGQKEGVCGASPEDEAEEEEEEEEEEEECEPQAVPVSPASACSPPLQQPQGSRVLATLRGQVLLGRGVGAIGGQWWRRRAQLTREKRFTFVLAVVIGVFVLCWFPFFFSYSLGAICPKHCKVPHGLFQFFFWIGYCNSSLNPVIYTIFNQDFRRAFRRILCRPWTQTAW
The following applies: 10 μM; cited from earlier work.

A further data set deals with DAT (Homo sapiens, UniProt Q01959). The following applies: 10 μM; cited from earlier work.
The subject of data set [4] is male Sprague–Dawley rats. Nature of the data set: WAY163909 versus saline two-lever drug discrimination assay. In kind it is in vivo, rat.
The test system of data set [5] is male Sprague–Dawley rats. Particulars: previous study; cited from earlier work.
The next data set concerns the target CYP3A4 (Homo sapiens, UniProt P08684). As to the kind of experiment: CYP3A4 inhibition. Particulars: 10 μM.
Data set [6] can be described thus: rat liver microsomal clearance. Particulars: microsomes. A general note: Liver microsomes are a subcellular fraction often used to study metabolism.
A further data set addresses CYP2D6 (Homo sapiens, UniProt P10635). As to the kind of experiment: CYP2D6 inhibition. Particulars: 10 μM.
A short description of a further data set: kinetic solubility. The following applies: 2 h.
For a further data set, the target named is CYP2C19 (Homo sapiens, UniProt P33261). Nature of the data set: CYP2C19 inhibition. The following applies: 10 μM.
A further data set addresses CYP2C9 (Homo sapiens, UniProt P11712). Nature of the data set: CYP2C9 inhibition. The following applies: 10 μM.
A further data set concerns the target human h5-HT2AR (Homo sapiens, UniProt P28223). As to the kind of experiment: 5-HT-induced Cai2+ release assay in h5-HT2AR-CHO cells. Type of data set: cell-based.
The next data set concerns the target T4, CYP1A2 (Homo sapiens, UniProt P05177).
T4 sequence (P05177 1-516): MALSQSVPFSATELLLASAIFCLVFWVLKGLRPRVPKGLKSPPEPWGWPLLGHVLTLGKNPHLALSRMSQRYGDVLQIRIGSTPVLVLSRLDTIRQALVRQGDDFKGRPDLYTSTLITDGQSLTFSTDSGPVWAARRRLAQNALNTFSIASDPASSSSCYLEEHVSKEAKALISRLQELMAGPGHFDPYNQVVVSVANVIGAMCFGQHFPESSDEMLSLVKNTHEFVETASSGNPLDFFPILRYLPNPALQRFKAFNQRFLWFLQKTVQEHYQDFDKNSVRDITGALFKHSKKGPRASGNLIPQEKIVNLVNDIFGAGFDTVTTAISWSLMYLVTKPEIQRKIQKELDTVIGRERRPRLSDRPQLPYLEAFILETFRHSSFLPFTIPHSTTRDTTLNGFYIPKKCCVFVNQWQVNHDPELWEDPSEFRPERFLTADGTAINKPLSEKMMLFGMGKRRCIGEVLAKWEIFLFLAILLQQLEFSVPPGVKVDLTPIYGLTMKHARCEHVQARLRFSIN
As to the kind of experiment: CYP1A2 inhibition. Particulars: 10 μM.

In a further data set the target is T5, α 1B (Homo sapiens, UniProt P35368).
T5 sequence (P35368 1-520): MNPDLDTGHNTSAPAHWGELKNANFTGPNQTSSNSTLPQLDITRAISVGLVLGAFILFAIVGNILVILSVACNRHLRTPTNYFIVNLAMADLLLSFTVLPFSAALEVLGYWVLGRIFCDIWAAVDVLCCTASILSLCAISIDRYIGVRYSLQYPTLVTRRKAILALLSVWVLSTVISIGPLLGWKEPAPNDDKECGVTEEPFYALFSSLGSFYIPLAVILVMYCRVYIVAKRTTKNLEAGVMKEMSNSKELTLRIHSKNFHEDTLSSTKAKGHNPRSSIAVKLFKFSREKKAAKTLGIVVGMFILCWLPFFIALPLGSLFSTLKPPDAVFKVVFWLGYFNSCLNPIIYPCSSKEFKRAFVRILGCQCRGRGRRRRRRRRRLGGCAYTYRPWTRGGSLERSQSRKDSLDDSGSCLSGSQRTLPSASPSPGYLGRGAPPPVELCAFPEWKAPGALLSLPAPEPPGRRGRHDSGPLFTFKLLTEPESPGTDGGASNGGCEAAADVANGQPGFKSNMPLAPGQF
Nature of the data set: NIMH PDSP radioligand binding displacement, α 1B. Particulars: read-out: % inhibition (10 μM).

Data set [7] has as its target T2, human 5-HT2CR (unedited INI isoform). The following applies: h5-HT2CR-CHO cells.

As a reminder, the microsomal CLint is the capacity of the preparation to metabolise the compound, expressed as a volume cleared per time. High values mean faster metabolism, low ones greater metabolic stability. One may read the inhibition as the change of the read-out against control, counted positive when it falls.

Sequence of human h5-HT2AR (P28223 whole entry): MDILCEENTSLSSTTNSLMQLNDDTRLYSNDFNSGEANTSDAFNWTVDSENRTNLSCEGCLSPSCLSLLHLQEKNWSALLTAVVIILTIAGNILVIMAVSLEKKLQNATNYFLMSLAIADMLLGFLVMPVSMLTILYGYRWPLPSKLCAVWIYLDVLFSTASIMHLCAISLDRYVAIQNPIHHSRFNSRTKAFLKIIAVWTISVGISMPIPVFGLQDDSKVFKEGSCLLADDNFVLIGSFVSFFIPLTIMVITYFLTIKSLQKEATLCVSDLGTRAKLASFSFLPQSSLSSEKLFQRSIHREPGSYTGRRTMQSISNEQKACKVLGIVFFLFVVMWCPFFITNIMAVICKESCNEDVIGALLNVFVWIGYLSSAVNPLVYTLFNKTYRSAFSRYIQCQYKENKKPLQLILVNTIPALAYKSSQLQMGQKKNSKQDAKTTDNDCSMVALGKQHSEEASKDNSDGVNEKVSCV
Sequence of DAT (Q01959 whole entry): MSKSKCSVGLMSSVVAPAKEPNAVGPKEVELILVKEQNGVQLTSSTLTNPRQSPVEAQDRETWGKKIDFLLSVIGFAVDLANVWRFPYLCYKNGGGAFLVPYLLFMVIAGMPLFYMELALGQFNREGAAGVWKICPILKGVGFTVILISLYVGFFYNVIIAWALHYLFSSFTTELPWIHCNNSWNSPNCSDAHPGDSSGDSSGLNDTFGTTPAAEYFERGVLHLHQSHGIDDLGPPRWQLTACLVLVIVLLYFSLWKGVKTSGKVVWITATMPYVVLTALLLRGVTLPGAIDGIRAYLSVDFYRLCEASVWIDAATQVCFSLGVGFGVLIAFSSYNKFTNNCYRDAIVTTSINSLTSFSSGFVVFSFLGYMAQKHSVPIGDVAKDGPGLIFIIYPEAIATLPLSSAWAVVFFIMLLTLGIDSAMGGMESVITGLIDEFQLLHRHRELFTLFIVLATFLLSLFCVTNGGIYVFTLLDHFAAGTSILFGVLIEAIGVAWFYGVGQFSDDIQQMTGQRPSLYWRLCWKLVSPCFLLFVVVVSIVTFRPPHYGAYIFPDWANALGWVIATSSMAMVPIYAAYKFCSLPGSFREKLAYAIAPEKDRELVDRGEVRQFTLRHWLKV
Sequence of CYP2D6 (P10635 whole entry): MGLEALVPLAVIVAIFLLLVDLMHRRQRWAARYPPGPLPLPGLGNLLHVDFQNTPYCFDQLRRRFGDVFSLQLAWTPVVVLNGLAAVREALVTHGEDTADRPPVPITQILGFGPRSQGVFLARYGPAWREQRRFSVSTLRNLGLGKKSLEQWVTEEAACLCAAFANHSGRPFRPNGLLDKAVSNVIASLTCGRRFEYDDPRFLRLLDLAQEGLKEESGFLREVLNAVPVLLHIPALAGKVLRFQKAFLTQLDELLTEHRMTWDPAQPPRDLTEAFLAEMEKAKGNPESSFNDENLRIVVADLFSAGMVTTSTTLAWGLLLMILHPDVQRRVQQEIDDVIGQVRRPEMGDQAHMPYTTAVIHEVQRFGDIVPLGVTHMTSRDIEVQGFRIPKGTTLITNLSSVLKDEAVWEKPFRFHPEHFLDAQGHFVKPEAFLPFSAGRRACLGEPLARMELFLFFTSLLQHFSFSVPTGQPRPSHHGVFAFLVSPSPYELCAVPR
Sequence of CYP2C9 (P11712 whole entry): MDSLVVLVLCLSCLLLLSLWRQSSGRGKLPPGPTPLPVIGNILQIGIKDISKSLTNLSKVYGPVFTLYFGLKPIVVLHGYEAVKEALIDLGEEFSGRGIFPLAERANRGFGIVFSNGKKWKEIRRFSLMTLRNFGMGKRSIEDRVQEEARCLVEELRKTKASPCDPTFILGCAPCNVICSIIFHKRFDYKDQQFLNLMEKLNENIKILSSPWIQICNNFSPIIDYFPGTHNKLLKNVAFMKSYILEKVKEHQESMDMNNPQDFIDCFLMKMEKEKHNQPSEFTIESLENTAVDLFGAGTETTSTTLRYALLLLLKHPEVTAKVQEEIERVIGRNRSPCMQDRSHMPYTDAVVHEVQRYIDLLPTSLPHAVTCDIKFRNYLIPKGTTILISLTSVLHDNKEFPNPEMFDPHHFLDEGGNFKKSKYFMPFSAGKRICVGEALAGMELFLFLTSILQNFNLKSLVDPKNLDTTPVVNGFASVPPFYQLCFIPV
Sequence of CYP3A4 (P08684 whole entry): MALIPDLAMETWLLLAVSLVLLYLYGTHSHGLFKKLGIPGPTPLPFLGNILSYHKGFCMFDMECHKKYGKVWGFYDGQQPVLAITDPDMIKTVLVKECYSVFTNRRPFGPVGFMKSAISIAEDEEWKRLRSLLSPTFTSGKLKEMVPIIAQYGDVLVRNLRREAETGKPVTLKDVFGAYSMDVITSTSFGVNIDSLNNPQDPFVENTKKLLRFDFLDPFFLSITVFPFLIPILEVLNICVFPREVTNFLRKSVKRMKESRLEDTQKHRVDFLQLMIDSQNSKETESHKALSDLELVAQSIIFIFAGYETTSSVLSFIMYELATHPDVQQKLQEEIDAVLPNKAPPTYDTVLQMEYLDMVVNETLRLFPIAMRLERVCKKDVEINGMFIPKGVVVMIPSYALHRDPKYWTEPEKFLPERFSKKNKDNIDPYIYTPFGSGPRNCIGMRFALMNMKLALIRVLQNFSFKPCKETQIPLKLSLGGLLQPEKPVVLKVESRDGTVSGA
Sequence of CYP2C19 (P33261 whole entry): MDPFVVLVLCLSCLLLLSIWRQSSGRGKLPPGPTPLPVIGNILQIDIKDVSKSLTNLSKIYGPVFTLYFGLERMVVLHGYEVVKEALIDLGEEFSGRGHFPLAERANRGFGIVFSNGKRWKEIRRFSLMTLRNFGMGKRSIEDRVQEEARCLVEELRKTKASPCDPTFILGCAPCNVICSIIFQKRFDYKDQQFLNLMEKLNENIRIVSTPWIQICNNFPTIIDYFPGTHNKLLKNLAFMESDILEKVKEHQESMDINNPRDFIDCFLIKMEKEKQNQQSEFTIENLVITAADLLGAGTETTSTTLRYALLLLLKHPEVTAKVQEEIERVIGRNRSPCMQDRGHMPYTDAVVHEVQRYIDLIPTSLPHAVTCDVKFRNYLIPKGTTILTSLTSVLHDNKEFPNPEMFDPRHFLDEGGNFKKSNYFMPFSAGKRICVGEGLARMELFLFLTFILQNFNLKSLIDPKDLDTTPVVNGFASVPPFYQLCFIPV
Sequence of D3 (P35462 whole entry): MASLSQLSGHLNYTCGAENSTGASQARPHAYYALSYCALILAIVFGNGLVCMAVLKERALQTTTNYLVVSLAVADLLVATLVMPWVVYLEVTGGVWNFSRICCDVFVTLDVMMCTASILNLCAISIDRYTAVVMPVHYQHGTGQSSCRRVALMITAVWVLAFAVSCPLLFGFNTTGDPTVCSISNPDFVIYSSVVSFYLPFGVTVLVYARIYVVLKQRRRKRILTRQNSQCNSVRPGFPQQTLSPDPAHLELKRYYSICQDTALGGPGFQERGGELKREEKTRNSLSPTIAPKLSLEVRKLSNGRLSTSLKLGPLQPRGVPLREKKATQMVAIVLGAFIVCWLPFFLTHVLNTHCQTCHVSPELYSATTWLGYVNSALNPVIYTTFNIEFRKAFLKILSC

With `CCCCCCCCCCC[C@@H]1CCN[C@H](C(=O)NCC(O)CO)C1` (some centres unmarked) [Compound 3], the “inhibition of radioligand binding” value at α 2A is 85.1%; on D3 it was 71.7%; at α 2B it was 80.7%; on DAT it was 66.3%. Further, the “effect on cocaine-seeking during abstinence from cocaine self-administration” value in the data set on rats [1] is on record as “suppress cocaine-seeking”. Besides, the “Emax RFU (% 5-HT)” value in data set [2] (compound 1 nM, 5-HT-induced Cai2+ release) is listed as 123.2 ± 4.1 % 5-HT. Also, the “effect on Cai2+ release in the absence of 5-HT” value in [2] was “no effect on Cai^2+ release”. Also, the “effect on locomotor activity” value in the data set with rats [3] is given as “decrease locomotor activity”.

As for `c1cc2c3c(c1)[C@H]1CCC[C@H]1N3CCNC2` [WAY163909, (7b-R,10a-R)-1,2,3,4,8,9,10,10a-octahydro-7bH-cyclopenta[b][1,4] diazepino[6,7,1hi]indole, reference compound], the “percentage of rats selecting the WAY163909-associated lever” value in the data set on male Sprague–Dawley rats [4] (WAY163909 0.125 mg/kg ip, substitution test, n = 13) is recorded as 0%. In addition, the “dose predicted to result in 50% drug-associated responses (ED50)” value with male Sprague–Dawley rats [5] is reported as 0.53 mg/kg.

As to `O=C(NC[C@H](O)CO)[C@@H]1C[C@H](c2ccccc2)CCN1` (mixture of isomers) [Compound 12, (2,4-cis)-N-((S)-2,3-Dihydroxypropyl)-4-phenylpiperidine-2-carboxamide], the CYP3A4 inhibition on CYP3A4 is on record as 0.0% (10 μM). The microsomal CLint at 10 μM in [6] is below 9.6 µL/min/mg. The CYP2D6 inhibition on CYP2D6 was 1.9% (10 μM). Moreover, in the data set “kinetic solubility”, the “kinetic solubility (PBS; pH 7.4)” value was “highly soluble”. In addition, the “response rates (in words)” value in the data set on male Sprague–Dawley rats [4] (12 alone 0.5–5 mg/kg ip) was “no change in response rates”. Also, the “substitution for WAY163909 (lever responding, in words)” value in the data set with male Sprague–Dawley rats [4] (12 alone 0.5–5 mg/kg ip, 30 min prior to testing) was “evoked saline lever responding”. The CYP2C19 inhibition at CYP2C19 is listed as 0.0% (10 μM). Besides, the CYP2C9 inhibition at CYP2C9 was 0.0% (10 μM). On human h5-HT2AR, the “alteration of Emax or EC50 of 5-HT-induced Cai2+ release (in words)” value was “no alteration in the Emax or EC50; also recorded: inactive as an agonist or allosteric modulator”. The CYP1A2 inhibition on CYP1A2 is listed as 11.8% (10 μM). For the same compound, the inhibition at 10 µM at α 1B is -11%. The “5-HT2CR positive allosteric modulator activity (in words)” value in data set [7] (1 nM, 5-HT-induced Cai2+ release) is “significant PAM activity”. In addition, in data set [7] (compound added 15 min before 5-HT), the “intrinsic agonist activity to induce Cai2+ release prior to addition of 5-HT” value is given as “did not exhibit intrinsic activity”.
